US12377063B2, “Combination therapies for managing cancer” (Emory University, priority 2019, dated 2025)

What was measured:
Type in all cases: cell-based
[1] = tested on: multiple lung and mixed leader:follower lines; assay: Collective invasion of spheroids embedded in Matrigel; conditions: alexidine alone
Description: Brightfield representative images are shown. Solid lines designate outer perimeter. Scale bar=50 μm.
(§1) Compounds were screened, and it was discovered that most compounds effective at inhibiting lead cells were typically anti-metabolic agents that disrupt OXPHOS. One such compound, alexidine hydrochloride targets mitochondrial function. Leader cells are sensitive to mitochondria-targeting agents as a class.
(§2) Since alexidine inhibits active PDH in leaders and Bay-876 targets GLUT1, the combination of alexidine and Bay-876 to co-target these cellular subtypes, respectively, during collective invasion was examined. To quantitatively determine synergy a combination index analyses was used. […] Importantly, normal lung epithelial cells (HBEC, MRC5) had no synergy at low and moderate doses (FIG. 8A). The effects of Bay-876 plus alexidine on invasion were examined. […] It is also contemplated that one can co-target metabolically heterogeneous populations using the combination of the leader cell targeting agent, alexidine, and the GLUT1 targeting agent, BAY-876 or the glycolytic/PPP activity of followers and OXHOS-driven biology of the leaders in a manor illustrated in the table below.

[2] = tested on: p-PDHS293 in leader cells; assay: p-PDHS293 after alexidine treatment, leader cells; conditions: alexidine treatment for 24 hours
Description: Alexidine Dihydrochloride Induces Metabolic Reprogramming of Leader Cells Via S293 Phosphorylation of PDH
as §2

[3] = tested on: leader cells; assay: Lactate production after alexidine treatment; conditions: alexidine treatment for 24 hours
[4] = tested on: leader cells; assay: Cell death in leader cells; conditions: after 72 hours
Description: as §1

[5] = tested on: pPDHS293 in follower cells; assay: pPDHS293 after alexidine treatment, follower cells
[6] = tested on: follower/leader cells; conditions: leaders vs followers; 72 hrs of treatment; FIG. 3D
[7] = tested on: GLUT1 mRNA expression in followers; assay: GLUT1 mRNA expression by qRT-PCR; conditions: 24 hrs, FIG. 7C
Experimental: (§3) To determine how GLUT1 expression in followers could be regulated upstream, signaling alterations that might contribute to altered GLUT1 expression in leaders and followers were evaluated. YAP and TAZ are transcriptional co-activators of TEAD (Hippo signaling) and regulate GLUT1 expression. YAP/TEAD 1-4 members were interrogated. […] Cells were treated with the YAP/TEAD inhibitor, verteporfin, which has promising anti-tumor activity.

[8] = tested on: parental H1299 cells; assay: Spheroid invasion assay, parental H1299; conditions: FIG. 7E
Experimental: as §3

[9] = tested on: H1299 cells; assay: Cell number / viability after verteporfin; conditions: parental H1299 cells; 72 hours; FIG. 7D
Experimental: as §3

CCCCC(CC)CNC(=N)NC(=N)NCCCCCCNC(=N)NC(=N)NCC(CC)CCCC (centres unmarked) [Alexidine, 1,1′-(hexane-1,6-diyl)bis(5-(2-ethylhexyl)biguanidine)]
doses decreasing invasiveness relative to doses inducing cell death ([1]; earlier time points prior to effect on proliferation): doses lower than those that induce cell death | collective invasion ([1]; multiple lung cell lines): dose-dependent inhibition | p-PDHS293 level [2]: increased p-PDHS293 | lactate production [3]: increased lactate production | cell death [4]: no significant amount of cell death | impact on pPDHS293 [5]: no significant impact

CN(C)C(=N)N=C(N)N [metformin]
sensitivity of leaders to complex I inhibitors (proliferation) [6]: increased sensitivity

C/C=C(\C)[C@H](O)[C@H](C)/C=C(C)/C=C/C/C(C)=C/Cc1nc(OC)c(OC)c(O)c1C [piericidin, piericidin A]
sensitivity of leaders to complex I inhibitors (proliferation) [6]: increased sensitivity

verteporfin
GLUT1 mRNA expression [7]: suppressed GLUT1 mRNA expression in followers in a dose-dependent manner | invasive properties (invasive area) [8]: significantly reduced | proliferative properties (cell number) [9]: significantly reduced
